Literature values as cited in patent publication US20130267526A1, “HETEROCYCLIC COMPOUNDS AND THEIR USES” (Amgen, Inc., priority 2010, published 2013).

What was measured:
[1] = tested on: mouse model of rheumatoid arthritis; conditions: in vivo
[2] = tested on: model of systemic lupus erythematosis; conditions: in vivo
p110δ = target: T1, p110δ (Homo sapiens, UniProt O00329)
T1 sequence (O00329 1-1044): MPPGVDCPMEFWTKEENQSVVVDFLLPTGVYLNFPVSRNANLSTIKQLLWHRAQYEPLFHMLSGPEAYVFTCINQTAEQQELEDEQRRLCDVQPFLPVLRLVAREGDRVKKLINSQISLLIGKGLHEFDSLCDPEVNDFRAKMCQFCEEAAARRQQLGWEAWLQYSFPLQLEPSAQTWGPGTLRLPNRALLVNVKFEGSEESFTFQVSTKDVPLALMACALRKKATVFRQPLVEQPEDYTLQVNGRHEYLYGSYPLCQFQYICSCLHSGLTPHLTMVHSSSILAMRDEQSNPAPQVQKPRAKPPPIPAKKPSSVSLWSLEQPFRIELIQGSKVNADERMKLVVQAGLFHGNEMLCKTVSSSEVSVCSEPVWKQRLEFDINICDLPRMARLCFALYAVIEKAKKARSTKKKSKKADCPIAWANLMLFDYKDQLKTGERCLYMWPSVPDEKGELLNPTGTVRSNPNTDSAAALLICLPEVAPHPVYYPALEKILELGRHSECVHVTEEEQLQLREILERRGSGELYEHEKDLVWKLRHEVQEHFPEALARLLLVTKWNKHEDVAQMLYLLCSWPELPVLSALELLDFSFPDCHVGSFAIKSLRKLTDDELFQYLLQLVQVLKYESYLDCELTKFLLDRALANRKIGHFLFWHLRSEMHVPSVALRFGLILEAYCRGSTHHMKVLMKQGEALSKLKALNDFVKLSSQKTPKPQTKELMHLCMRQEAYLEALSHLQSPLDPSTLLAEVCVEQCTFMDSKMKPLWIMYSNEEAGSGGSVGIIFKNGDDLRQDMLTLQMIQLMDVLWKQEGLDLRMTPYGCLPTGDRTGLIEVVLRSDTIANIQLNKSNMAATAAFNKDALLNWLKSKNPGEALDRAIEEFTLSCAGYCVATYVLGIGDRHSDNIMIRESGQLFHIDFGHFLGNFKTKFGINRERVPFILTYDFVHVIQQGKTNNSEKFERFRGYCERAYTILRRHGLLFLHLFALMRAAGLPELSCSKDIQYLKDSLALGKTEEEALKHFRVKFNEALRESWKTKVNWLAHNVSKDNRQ

[3] = tested on: ovalbumin-induced airway inflammation
[4] = tested on: passive cutaneous anaphylaxis (PCA); conditions: absence of functional delta (IC 87114 and p110δ D910A mice)

Row | Structure (SMILES) | efficacy in a mouse model of rheumatoid arthritis [1] | onset of disease in a model of systemic lupus erythematosis [2] | inhibition of p110δ (p110δ) | inflammation and disease in murine asthma model [3] | passive cutaneous anaphylaxis (PCA) [4] | activity against any protein kinases tested (protein kinases)
1 | O=C1NC(=O)/C(=C\c2ccc3nccnc3c2)S1 [AS 605240] | efficacious | delay onset of disease | – | – | – | –
2 | Cc1ccccc1-n1c(Cn2cnc3c(N)ncnc32)nc2cccc(C)c2c1=O [IC87114] | – | – | high nanomolar range (triple digit) | significantly ameliorate | significantly reduced | no activity
